Source: patent US10851115B2, “Heterocyclic compounds as RSV inhibitors” (Enanta Pharmaceuticals, Inc., priority 2017, dated 2020)

These molecules were tested on Human RSV-A (“Long” strain) (assay: RSV in vitro cytoprotection assay in HEp-2 cells (ATPlite readout)). Conditions: human respiratory syncytial virus, 96 h; HEp-2 cells, 4-day incubation, ATPlite; read-out: Human RSV-A (“Long” strain) EC50.
Format: cell-based
Source text: RSV is a single stranded negative sense RNA virus that causes respiratory tract infections which can be dangerous to infants, the elderly, and immunosuppressed individuals. Currently there is no vaccine, and therapeutic options are both costly and of limited effectiveness. These approved treatments are Ribavirin, and Palivizumab/Synagis (a monoclonal antibody). RSV has two genotypes, A and B, which differ primarily in the structure of the virus' surface “G” attachment protein. Our current primary screen focusses on RSV-A and uses an in vitro cytoprotection assay where compounds are added in 2-fold dilutions to cells which are then subjected to fully replicative viral particles. Cell viability is measured several days later along with separate measurements of compound cytotoxicity. This report focuses on the results of our most recent screening of compounds.
HEp-2 cells, (originally derived from tumors grown in irradiated-cortisonised weanling rats that had been injected with epidermoid carcinoma tissue from a person's larynx, but later found to be indistinguishable from HeLa cells by PCR DNA analysis), were used for the culturing of genotype A, “Long” strain RSV. Flasks were inoculated with RSV and viral stocks were collected once cytopathic effect (CPE) was greater than 90%. Viral stocks in 25% sucrose media were snap frozen using liquid nitrogen to increase viral stability. Viral stock titers were quantified by tissue culture infectious dose 50% (TCID50) using 8,000 cells per well and 3-fold viral dilutions across a 96-well plate, cultured for 4 days.
Following extensive parameter testing, the final assay is run as follows: HEp-2 cells are seeded into the inner 60 wells of a 96-well plate at 8,000 cells per well in a volume of 50 μL using Growth Media (DMEM without phenol red, 1% L-Glut, 1% Penn/Strep, 1% nonessential amino acids, 10% FBS). 2-Fold serial dilutions of control and test compounds are added to the wells in duplicate in a total volume of 25 μL. Viral stock is then added to the wells in a volume of 25 μL, bringing the total volume of each well to 100 μL. Each 96-well plate has a control column of 6 wells with cells and virus but no compound (negative control, max CPE), a column with cells but no compound or virus (positive control, minimum CPE), and a column with no cells or virus or compound (background plate/reagent control). The control wells with cells but no virus are given an additional 25 uL of growth media containing an equal quantity of sucrose as those wells receiving the viral stock in order to keep consistent in media and volume conditions. The outer wells of the plate are filled with 125 μL of growth media to act as a thermal and evaporative moat around the test wells. Following a 4-day incubation period, the plates are read using ATPlite (50 uL added per well), which quantifies the amount of ATP (a measure of cell health) present in each well. Assay plates are read using the Envision luminometer. In parallel, cytotoxicity is examined on an additional 96-well plate treated in an identical manner, but substituting the 25 μL of viral stock for 25 μL of growth media. […] EC50 ranges are as follows: A<0.01 μM; B 0.01-0.05 μM; C>0.05 μM.
In the case of `Cc1cnc(N2CCC3(CC2)COC3)c(C(=O)Nc2ccc(C(=O)N3CCc4cc(C(=O)Nc5ccccc5)sc4-c4ncccc43)cc2)c1` [Example 90], the EC50 is reported as 10 to 50 nM. Work on `Cc1cnc(N2CCC3(CC2)COC3)c(C(=O)Nc2ccc(C(=O)N3CCc4cc(C(=O)Nc5c(Cl)cccc5Cl)sc4-c4ncccc43)cc2)c1` [Example 91] yielded an EC50 of under 10 nM. `Cc1cnc(N2CCC3(CC2)COC3)c(C(=O)Nc2ccc(C(=O)N3CCc4cc(C(=O)Nc5c(C)cccc5C#N)sc4-c4ncccc43)cc2)c1` [Example 92] was tested, and the EC50 was 10 to 50 nM. Work on `Cc1cnc(N2CCC3(CC2)COC3)c(C(=O)Nc2ccc(C(=O)N3CCc4cc(C(=O)Nc5c(F)cccc5Cl)sc4-c4ncccc43)cc2)c1` [Example 93] yielded an EC50 of under 10 nM. With `Cc1cnc(N2CCC3(CC2)COC3)c(C(=O)Nc2ccc(C(=O)N3CCc4cc(C(=O)Nc5c(F)cccc5C(F)(F)F)sc4-c4ncccc43)cc2)c1` [Example 94] the EC50 was 10 to 50 nM. In the case of `Cc1cnc(N2CCC3(CC2)COC3)c(C(=O)Nc2ccc(C(=O)N3CCc4cc(C(=O)Nc5ncccc5F)sc4-c4ncccc43)cc2)c1` [Example 95], the EC50 is reported as 10 to 50 nM. `Cc1cnc(N2CCC3(CC2)COC3)c(C(=O)Nc2ccc(C(=O)N3CCc4cc(-c5nc6cccc(F)c6[nH]5)sc4-c4ncccc43)cc2)c1` [Example 97] was tested, and the EC50 was 10 to 50 nM. Work on `Cc1cnc(N2CCC3(CC2)COC3)c(C(=O)Nc2ccc(C(=O)N3CCc4cc(C(=O)Nc5c(C)cccc5F)sc4-c4ncccc43)cc2)c1` [Example 98] yielded an EC50 of under 10 nM. `Cc1cnc(N2CC3(CCOCC3)C2)c(C(=O)Nc2ccc(C(=O)N3CCc4cc(C(=O)Nc5c(F)cccc5F)oc4-c4ncc(F)cc43)cc2)c1` [Example 99] showed an EC50 of under 10 nM. `Cc1cnc(N2CC3(CCOCC3)C2)c(C(=O)Nc2ccc(C(=O)N3CCc4cc(C(=O)Nc5c(Cl)cccc5Cl)oc4-c4ncc(F)cc43)cc2)c1` [Example 100] was tested, and the EC50 was 10 to 50 nM. With `Cc1cnc(N2CC3(CCOCC3)C2)c(C(=O)Nc2ccc(C(=O)N3CCc4cc(C(=O)Nc5c(F)cccc5Cl)oc4-c4ncc(F)cc43)cc2)c1` [Example 101] the EC50 was under 10 nM. `Cc1cnc(N2CC3(CCOCC3)C2)c(C(=O)Nc2ccc(C(=O)N3CCc4cc(C(=O)Nc5c(F)cccc5C(F)(F)F)oc4-c4ncc(F)cc43)cc2)c1` [Example 102] was tested, and the EC50 was 10 to 50 nM. For `Cc1cnc(N2CC3(CCOCC3)C2)c(C(=O)Nc2ccc(C(=O)N3CCc4cc(-c5nc6ccccc6[nH]5)oc4-c4ncc(F)cc43)cc2)c1` [Example 103], the EC50 was 10 to 50 nM. `O=C(Nc1c(F)cccc1F)c1cc2c(o1)-c1ncc(F)cc1N(C(=O)c1ccc(NC(=O)c3cc4c(nc3N3CC5(CCOCC5)C3)CCC4)cc1)CC2` [Example 104] was tested, and the EC50 was under 10 nM. For `O=C(Nc1c(Cl)cccc1Cl)c1cc2c(o1)-c1ncc(F)cc1N(C(=O)c1ccc(NC(=O)c3cc4c(nc3N3CC5(CCOCC5)C3)CCC4)cc1)CC2` [Example 105], the EC50 was under 10 nM. In the case of `O=C(Nc1c(F)cccc1Cl)c1cc2c(o1)-c1ncc(F)cc1N(C(=O)c1ccc(NC(=O)c3cc4c(nc3N3CC5(CCOCC5)C3)CCC4)cc1)CC2` [Example 106], the EC50 is reported as under 10 nM. Work on `O=C(Nc1c(F)cccc1C(F)(F)F)c1cc2c(o1)-c1ncc(F)cc1N(C(=O)c1ccc(NC(=O)c3cc4c(nc3N3CC5(CCOCC5)C3)CCC4)cc1)CC2` [Example 107] yielded an EC50 of under 10 nM. With `O=C(Nc1ccc(C(=O)N2CCc3cc(-c4nc5ccccc5[nH]4)oc3-c3ncc(F)cc32)cc1)c1cc2c(nc1N1CC3(CCOCC3)C1)CCC2` [Example 108] the EC50 was 10 to 50 nM. `Cc1cnc(N2CC3(CCOCC3)C2)c(C(=O)Nc2ccc(C(=O)N3CCc4cc(-c5ccc[nH]c5=O)oc4-c4ncc(F)cc43)cc2)c1` [Example 109] showed an EC50 of 10 to 50 nM. Molecule `Cc1cnc(N2CC3(CCOCC3)C2)c(C(=O)Nc2ccc(C(=O)N3CCc4cc(-c5ccc[nH]c5=O)sc4-c4ncc(F)cc43)cc2)c1` [Example 110] has an EC50 of 10 to 50 nM. With `Cc1cnc(N2CC3(CCOCC3)C2)c(C(=O)Nc2ccc(C(=O)N3CCc4cc(C(=O)Nc5c(F)cccc5F)oc4-c4cccnc43)cc2)c1` [Example 111] the EC50 was 10 to 50 nM. For `Cc1cnc(N2CC3(CCOCC3)C2)c(C(=O)Nc2ccc(C(=O)N3CCc4cc(C(=O)Nc5c(C)cccc5F)oc4-c4cccnc43)cc2)c1` [Example 112], the EC50 was over 50 nM.
